Data: the CheMixHub viscosity set
Values joined by “and” are separate entries in the source; they are usually repeats but may differ in a detail not shown here. Identical values can stand only once. ± gives the uncertainty stated by the source.

Assay: xn = mol fraction of the nth substance listed

CCCCNCCCC + CCCCCCCCO
viscosity [mPa·s], 101.33 kPa
Conditions	x1 = 0.0912	x1 = 0.1863	x1 = 0.2846	x1 = 0.3857	x1 = 0.4878	x1 = 0.5882	x1 = 0.6862	x1 = 0.7892	x1 = 0.8929
303.15 K	5.37 ± 0.059	4.588 ± 0.051	3.829 ± 0.043	3.105 ± 0.036	2.481 ± 0.029	1.979 ± 0.023	1.581 ± 0.019	1.251 ± 0.015	0.9852 ± 0.013
313.15 K	3.865 ± 0.044	3.336 ± 0.038	2.812 ± 0.032	2.336 ± 0.027	1.921 ± 0.023	1.569 ± 0.019	1.277 ± 0.016	1.026 ± 0.013	0.827 ± 0.011

CCCC(=O)O + CNC=O
viscosity [mPa·s], 100 kPa
Conditions	x2 = 0.1187	x2 = 0.1967	x2 = 0.2806	x2 = 0.3708	x2 = 0.5026	x2 = 0.6111	x2 = 0.6888	x2 = 0.7711	x2 = 0.9041
303.15 K	1.415	1.434	1.455	1.476	1.504	1.524	1.537	1.55	1.57
308.15 K	1.275	1.296	1.317	1.34	1.37	1.393	1.408	1.423	1.447
313.15 K	1.136	1.159	1.183	1.208	1.242	1.269	1.286	1.305	1.334
318.15 K	0.9979	1.024	1.052	1.08	1.12	1.152	1.174	1.197	1.233

CCCCNCCCC + ClC(Cl)(Cl)Cl
298.15 K, 101.3 kPa
Conditions	viscosity [mPa·s]
x1 = 0.0922	0.898 ± 0.009
x1 = 0.173	0.894 ± 0.009
x1 = 0.3108	0.887 ± 0.009
x1 = 0.4089	0.881 ± 0.009
x1 = 0.5011	0.877 ± 0.009
x1 = 0.5964	0.872 ± 0.009
x1 = 0.7077	0.864 ± 0.009
x1 = 0.7916	0.848 ± 0.009
x1 = 0.9034	0.823 ± 0.008

C1CC[C@H]2CCCC[C@H]2C1 + O=C1CCCCC1
viscosity [mPa·s], 101.3 kPa
Conditions	293.15 K	303.15 K
x2 = 0.05	3.262 ± 0.048	2.558 ± 0.038
x2 = 0.1446	3.118 ± 0.044	2.471 ± 0.035
x2 = 0.2281	3.006 ± 0.041	2.399 ± 0.033
x2 = 0.35	2.863 ± 0.038	2.302 ± 0.031
x2 = 0.4482	2.767 ± 0.035	2.231 ± 0.029
x2 = 0.5559	2.68 ± 0.033	2.159 ± 0.027
x2 = 0.6271	2.634 ± 0.032	2.115 ± 0.026
x2 = 0.7252	2.586 ± 0.031	2.06 ± 0.025
x2 = 0.8051	2.56 ± 0.03	2.019 ± 0.024
x2 = 0.8571	2.549 ± 0.029	1.995 ± 0.023
x2 = 0.9322	2.543 ± 0.029	1.964 ± 0.023

[Cl-].[Li+] + O
Conditions	viscosity
293.15 K, 101 kPa, x1 = 0.17	4.51 ± 0.22 mPa·s
293.15 K, 101 kPa, x1 = 0.19	6.01 ± 0.29 mPa·s
293.15 K, 101 kPa, x1 = 0.2	7.36 ± 0.35 mPa·s
293.15 K, 101 kPa, x1 = 0.22	9.66 ± 0.46 mPa·s
293.15 K, 101 kPa, x1 = 0.23	10.29 ± 0.49 mPa·s
293.15 K, 101 kPa, x1 = 0.24	11.28 ± 0.54 mPa·s and 12.73 ± 0.61 mPa·s
293.15 K, 101 kPa, x1 = 0.25	14.55 ± 0.7 mPa·s
293.15 K, 101 kPa, x1 = 0.26	15.87 ± 0.76 mPa·s
293.15 K, 101 kPa, x1 = 0.27	17.76 ± 0.86 mPa·s
298.15 K, 101 kPa, x1 = 0.26	16.51 ± 0.47 mPa·s
298.15 K, 101.33 kPa, x1 = 0.2626	10.73 ± 0.43 mPa·s
303.15 K, 101 kPa, x1 = 0.17	3.42 ± 0.16 mPa·s
303.15 K, 101 kPa, x1 = 0.19	4.61 ± 0.22 mPa·s
303.15 K, 101 kPa, x1 = 0.2	5.59 ± 0.27 mPa·s
303.15 K, 101 kPa, x1 = 0.22	7.24 ± 0.35 mPa·s
303.15 K, 101 kPa, x1 = 0.23	7.44 ± 0.36 mPa·s
303.15 K, 101 kPa, x1 = 0.24	8.19 ± 0.39 mPa·s and 9.29 ± 0.45 mPa·s
303.15 K, 101 kPa, x1 = 0.25	10.53 ± 0.51 mPa·s
303.15 K, 101 kPa, x1 = 0.26	11.37 ± 0.55 mPa·s
303.15 K, 101 kPa, x1 = 0.27	12.85 ± 0.62 mPa·s
310.15 K, 101 kPa, x1 = 0.000205	0.7179 ± 0.0063 mPa·s
310.15 K, 101 kPa, x1 = 0.00126	0.7026 ± 0.0062 mPa·s
310.15 K, 101 kPa, x1 = 0.001978	0.7036 ± 0.0062 mPa·s
310.15 K, 101 kPa, x1 = 0.002695	0.6772 ± 0.006 mPa·s
310.15 K, 101 kPa, x1 = 0.003679	0.6492 ± 0.0058 mPa·s
310.15 K, 101 kPa, x1 = 0.005197	0.5792 ± 0.0053 mPa·s
310.15 K, 101 kPa, x1 = 0.005988	0.5574 ± 0.0051 mPa·s
313.15 K, 101 kPa, x1 = 0.17	2.73 ± 0.13 mPa·s
313.15 K, 101 kPa, x1 = 0.19	3.59 ± 0.17 mPa·s
313.15 K, 101 kPa, x1 = 0.2	4.32 ± 0.21 mPa·s
313.15 K, 101 kPa, x1 = 0.22	5.44 ± 0.26 mPa·s
313.15 K, 101 kPa, x1 = 0.23	5.67 ± 0.27 mPa·s
313.15 K, 101 kPa, x1 = 0.24	6.36 ± 0.3 mPa·s and 6.96 ± 0.33 mPa·s
313.15 K, 101 kPa, x1 = 0.25	7.83 ± 0.38 mPa·s
313.15 K, 101 kPa, x1 = 0.26	8.46 ± 0.41 mPa·s
313.15 K, 101 kPa, x1 = 0.27	9.36 ± 0.45 mPa·s
323.15 K, 101 kPa, x1 = 0.17	2.26 ± 0.11 mPa·s
323.15 K, 101 kPa, x1 = 0.19	2.94 ± 0.14 mPa·s
323.15 K, 101 kPa, x1 = 0.2	3.49 ± 0.17 mPa·s
323.15 K, 101 kPa, x1 = 0.22	4.37 ± 0.21 mPa·s
323.15 K, 101 kPa, x1 = 0.23	4.48 ± 0.21 mPa·s
323.15 K, 101 kPa, x1 = 0.24	4.99 ± 0.24 mPa·s and 5.38 ± 0.26 mPa·s
323.15 K, 101 kPa, x1 = 0.25	6.06 ± 0.29 mPa·s
323.15 K, 101 kPa, x1 = 0.26	6.55 ± 0.31 mPa·s
323.15 K, 101 kPa, x1 = 0.27	7.22 ± 0.35 mPa·s

CCCCNCCCC + CNC(C)=O
308.15 K, 101 kPa
Conditions	viscosity [mPa·s]
x1 = 0.0121	3.267 ± 0.025
x2 = 0.0611	0.7366 ± 0.011
x2 = 0.2864	1.116 ± 0.013
x2 = 0.4546	1.522 ± 0.015
x2 = 0.5799	1.89 ± 0.017
x2 = 0.6904	2.25 ± 0.019
x2 = 0.7866	2.584 ± 0.021
x2 = 0.8542	2.828 ± 0.023
x2 = 0.9262	3.06 ± 0.024

COCCO + CCC(C)=O
viscosity [mPa·s]
Conditions	298.15 K	308.15 K	318.15 K
101 kPa, x2 = 0.1049	1.321 ± 0.009	–	–
101 kPa, x2 = 0.2087	1.113 ± 0.008	–	–
101 kPa, x2 = 0.3115	0.937 ± 0.007	–	–
101 kPa, x2 = 0.413	0.78 ± 0.005	–	–
101 kPa, x2 = 0.5135	0.64 ± 0.005	–	–
101 kPa, x2 = 0.6128	0.525 ± 0.004	–	–
101 kPa, x2 = 0.7112	0.464 ± 0.003	–	–
101 kPa, x2 = 0.8085	0.43 ± 0.003	–	–
101 kPa, x2 = 0.9047	0.41 ± 0.003	–	–
101.33 kPa, x1 = 0.1014	0.423 ± 0.004	0.378 ± 0.004	0.339 ± 0.003
101.33 kPa, x1 = 0.2118	0.474 ± 0.004	0.419 ± 0.004	0.373 ± 0.004
101.33 kPa, x1 = 0.3001	0.53 ± 0.005	0.469 ± 0.004	0.418 ± 0.004
101.33 kPa, x1 = 0.3864	0.591 ± 0.005	0.521 ± 0.005	0.463 ± 0.004
101.33 kPa, x1 = 0.4984	0.695 ± 0.006	0.607 ± 0.005	0.534 ± 0.005
101.33 kPa, x1 = 0.601	0.805 ± 0.007	0.696 ± 0.006	0.607 ± 0.005
101.33 kPa, x1 = 0.695	0.938 ± 0.008	0.802 ± 0.007	0.692 ± 0.006
101.33 kPa, x1 = 0.8004	1.12 ± 0.01	0.945 ± 0.008	0.803 ± 0.007
101.33 kPa, x1 = 0.9019	1.334 ± 0.012	1.108 ± 0.01	0.931 ± 0.008

C[Si](C)(C)O[Si](C)(C)O[Si](C)(C)O[Si](C)(C)O[Si](C)(C)O[Si](C)(C)C + C[Si](C)(C)O[Si](C)(C)O[Si](C)(C)O[Si](C)(C)C
Conditions	viscosity [mPa·s]
298.15 K, 101 kPa, x1 = 0.413	1.738 ± 0.048
